Among the data in patent US11964953B2, “Substituted aminothiazoles as DGKzeta inhibitors for immune activation” (Bayer Aktiengesellschaft, priority 2020, dated 2024) are IC50 values, retold here.

In general, IC50 refers to the concentration needed to halve the response being measured.

For the experiment, the target named is human DGKζ (Homo sapiens (Human), UniProt Q13574). Description: Human DGKζ kinase activity inhibition assay (ADP-Glo). The note with it: in vitro human DGKζ kinase activity inhibition assay; read-out: IC50. In kind it is biochemical. As for the experimental part: Human DGKζ Kinase Activity Inhibition Assay. Human diacylglycerol kinase zeta (DGKζ) inhibitory activity of compounds of the present invention was quantified employing the human DGKζ kinase activity assay as described in the following paragraphs. In essence, the enzyme activity was measured by quantification of the adenosine-di-phosphate (ADP) generated as a co-product of the enzyme reaction via the “ADP-Glo™ Kinase Assay” kit from the company Promega. This detection system works as follows: In a first step the adenosine-tri-phosphate (ATP) not consumed in the kinase reaction is quantitatively converted to cyclic adenosine-mono-phosphate (cAMP) employing an adenylate cyclase (“ADP-Glo-reagent”), then the adenylate cyclase is stopped and the ADP generated in the kinase reaction is converted to ATP, which subsequently generates in a luciferase-based reaction a glow-luminescence signal (“Kinase Detection Reagent”). C-terminally FLAG-tagged, recombinant full-length human DGKζ (in house expressed in baculovirus infected insect cells, purified using anti-Flag pulldown and size exclusion chromatography) was used as enzyme. As an alternative, commercially available enzyme by Carnabio can be used. […] Subsequently, 22.55 volumes of a 510 mM solution of octyl-β-D-glucopyranoside (Sigma-Aldrich, Cat. #O8001-10G) in 50 mM MOPS buffer (pH 7.4) were added, and the mixture was sonicated in an ultrasonic bath for 20 s. […] Viewlux™ from Perkin-Elmer). The amount of emitted light was taken as a measure for the amount of ADP generated and thereby for the activity of the DGKζ.
Chain of human DGKζ (Q13574 other isoform, or with tags, fused parts or gaps): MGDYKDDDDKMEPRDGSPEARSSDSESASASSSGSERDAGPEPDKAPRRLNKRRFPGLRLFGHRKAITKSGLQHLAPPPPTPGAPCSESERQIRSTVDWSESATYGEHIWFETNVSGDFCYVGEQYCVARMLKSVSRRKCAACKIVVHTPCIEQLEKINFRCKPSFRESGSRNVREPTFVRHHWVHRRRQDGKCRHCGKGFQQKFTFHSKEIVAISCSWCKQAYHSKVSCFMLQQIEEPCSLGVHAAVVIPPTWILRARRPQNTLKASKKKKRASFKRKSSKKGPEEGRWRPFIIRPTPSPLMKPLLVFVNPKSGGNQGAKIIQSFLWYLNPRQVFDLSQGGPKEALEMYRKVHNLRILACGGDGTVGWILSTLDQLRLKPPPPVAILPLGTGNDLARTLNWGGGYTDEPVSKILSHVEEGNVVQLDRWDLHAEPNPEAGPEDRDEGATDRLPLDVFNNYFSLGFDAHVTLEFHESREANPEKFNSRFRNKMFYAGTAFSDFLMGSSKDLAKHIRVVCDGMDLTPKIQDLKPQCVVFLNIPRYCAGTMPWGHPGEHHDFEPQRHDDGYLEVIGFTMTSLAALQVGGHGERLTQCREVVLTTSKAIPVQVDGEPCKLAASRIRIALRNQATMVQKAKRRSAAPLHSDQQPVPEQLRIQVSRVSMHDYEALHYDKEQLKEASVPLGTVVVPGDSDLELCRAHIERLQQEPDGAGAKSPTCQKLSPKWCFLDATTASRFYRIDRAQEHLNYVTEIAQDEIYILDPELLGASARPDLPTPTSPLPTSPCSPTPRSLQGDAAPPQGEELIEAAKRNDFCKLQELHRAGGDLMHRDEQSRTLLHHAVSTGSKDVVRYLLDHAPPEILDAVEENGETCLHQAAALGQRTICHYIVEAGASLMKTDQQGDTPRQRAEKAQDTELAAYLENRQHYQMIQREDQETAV
A general note: ADP-Glo turns the ADP formed in a reaction into a luminescent signal.
On to `Cc1cccc(NC(=O)COc2ccc(C(=O)c3sc(N(c4ccc(F)cc4)C(C)C(N)=O)nc3N)cc2)c1` (racemic) [Example 87, rac-2-(N-[4-amino-5-[4-[2-(3-methylanilino)-2-oxo-ethoxy]benzoyl]thiazol-2-yl]-4-fluoro-anilino)propanamide], for which the IC50 was 8.53 nM. For `CC(C(N)=O)N(c1cnn(C)c1)c1nc(N)c(C(=O)c2ccccc2)s1` (single isomer, unassigned) [Example 78.1, 2-[(4-amino-5-benzoyl-thiazol-2-yl)-(1-methylpyrazol-4-yl)amino]propanamide] the value was over 20000 nM; for `CC(C(N)=O)N(c1ccc(OC(F)(F)F)c(F)c1)c1nc(N)c(C(=O)c2ccncc2)s1` (racemic) [Example 220, rac-2-[N-[4-amino-5-(pyridine-4-carbonyl)thiazol-2-yl]-3-fluoro-4-(trifluoromethoxy)anilino]propanamide], 219 nM; for `CC(C(N)=O)N(c1ccc(Cl)cc1)c1nc(N)c(C(=O)c2ccc(OC(F)F)cc2)s1` (racemic) [Example 47, rac-2-(N-[4-amino-5-[4-(difluoromethoxy)benzoyl]thiazol-2-yl]-4-chloro-anilino)propanamide], 3.77 nM. With `CC(C(N)=O)N(c1ccc(C(F)F)nc1)c1nc(N)c(C(=O)c2ccccc2)s1` (racemic) [Example 231, rac-2-[(4-amino-5-benzoyl-thiazol-2-yl)-[6-(difluoromethyl)-3-pyridyl]amino]propanamide], the IC50 was 662 nM. Turning to `COc1ccc(C(=O)c2sc(N(c3ccc(F)c(F)c3)C(C)C(N)=O)nc2N)cc1` (racemic) [Example 51, rac-2-(N-[4-amino-5-(4-methoxybenzoyl)thiazol-2-yl]-3,4-difluoro-anilino)propanamide], the IC50 stood at 16.6 nM. `CC(C(N)=O)N(c1ccc(Cl)cc1)c1nc(N)c(C(=O)c2ccc(OC(F)F)cc2)s1` (single isomer, unassigned) [Example 47.2, 2-(N-[4-amino-5-[4-(difluoromethoxy)benzoyl]thiazol-2-yl]-4-chloro-anilino)propanamide]: the half-maximal inhibitory concentration (IC50) stood at 1.96 nM. For the molecule `Cc1ccc(C(=O)c2sc(N(c3ccc(F)cc3)C(C)C(N)=O)nc2N)cc1` (racemic) [Example 63, rac-2-(N-[4-amino-5-(4-methylbenzoyl)thiazol-2-yl]-4-fluoro-anilino)propanamide], the IC50 was found to be 33.9 nM.

`CC(C(N)=O)N(c1ccc(F)cc1)c1nc(N)c(C(=O)c2ccc(OCC(=O)N3CCC(N(C)C)CC3)cc2)s1` (racemic) [Example 136, rac-2-(N-[4-amino-5-[4-[2-[4-(dimethylamino)-1-piperidyl]-2-oxo-ethoxy]benzoyl]thiazol-2-yl]-4-fluoro-anilino)propanamide]: the IC50 is 740 nM. In the case of `CC(C(N)=O)N(c1ccc(F)c(F)c1)c1nc(N)c(C(=O)c2ccc(O)cc2)s1` (single isomer, unassigned; enantiomer 2) [Example 288, 2-(N-[4-amino-5-(4-hydroxybenzoyl)thiazol-2-yl]-3,4-difluoro-anilino)propanamide (enantiomer 2)], the IC50 came to 3440 nM. On to `CC(C(N)=O)N(c1ccc(F)cc1)c1nc(N)c(C(=O)c2ccc3c(c2)CCC3)s1` (racemic) [Example 31, rac-2-(N-[4-amino-5-(indane-5-carbonyl)thiazol-2-yl]-4-fluoro-anilino)propanamide], for which the concentration for half-maximal inhibition (IC50) is 43.5 nM. As to `CC(C(N)=O)N(c1nc(N)c(C(=O)c2ccccc2)s1)c1ccc(OC(F)F)cc1F` (racemic) [Example 241, rac-2-[N-(4-amino-5-benzoyl-thiazol-2-yl)-4-(difluoromethoxy)-2-fluoro-anilino]propanamide], the IC50 is 382 nM.

Consider `CC(C(N)=O)N(c1ccc(F)cc1)c1nc(N)c(C(=O)c2ccc(OCC(=O)N3CCC[C@H]3C(N)=O)cc2)s1` (mixture of isomers) [Example 110, (2S)-1-[2-[4-[4-amino-2-(N-[2-amino-(1RS)-methyl-2-oxo-ethyl]-4-fluoro-anilino)thiazole-5-carbonyl]phenoxy]acetyl]pyrrolidine-2-carboxamide], for which the IC50 came to 366 nM. For `COc1ccc(C(=O)c2sc(N(c3ccc(OC(F)F)c(Cl)c3)C(C)C(N)=O)nc2N)cc1` (racemic) [Example 200, rac-2-[N-[4-amino-5-(4-methoxybenzoyl)thiazol-2-yl]-3-chloro-4-(difluoromethoxy)anilino]propanamide], the IC50 came out at 70 nM. As for `CONC(=O)COc1ccc(C(=O)c2sc(N(c3ccc(F)cc3)C(C)C(N)=O)nc2N)cc1` (racemic) [Example 102, rac-2-(N-[4-amino-5-[4-[2-(methoxyamino)-2-oxo-ethoxy]benzoyl]thiazol-2-yl]-4-fluoro-anilino)propanamide], the IC50 amounted to 506 nM.

On to `CC(C(N)=O)N(c1ccc(F)cc1)c1nc(N)c(C(=O)c2ccc(OCC(=O)NCC(O)CO)cc2)s1` (racemic) [Example 147, 2-(N-[4-amino-5-[4-[2-((2RS),3-dihydroxypropylamino)-2-oxo-ethoxy]benzoyl]thiazol-2-yl]-4-fluoro-anilino)propanamide], for which the 50% inhibitory concentration (IC50) turned out to be 291 nM. For the molecule `CC(=O)Nc1ccc(C(=O)c2sc(N(c3ccc(F)cc3)C(C)C(N)=O)nc2N)cc1` (racemic) [Example 185, rac-2-(N-[5-(4-acetamidobenzoyl)-4-amino-thiazol-2-yl]-4-fluoro-anilino)propanamide], the half-maximal inhibitory concentration (IC50) is 301 nM. With `CCOC(=O)COc1ccc(C(=O)c2sc(N(c3ccc(F)cc3)C(C)C(N)=O)nc2N)cc1` (single isomer, unassigned; enantiomer 2) [Example 81.2, ethyl 2-[4-[4-amino-2-(4-fluoro-N-[2-amino-1-methyl-2-oxo-ethyl]anilino)thiazole-5-carbonyl]phenoxy]acetate (enantiomer 2)] the figure was 10.1 nM. In the case of `CC(C(N)=O)N(c1ccc(F)cc1)c1nc(N)c(C(=O)c2ccc(C(F)(F)F)nc2)s1` (racemic) [Example 29, rac-2-(N-[4-amino-5-[6-(trifluoromethyl)pyridine-3-carbonyl]thiazol-2-yl]-4-fluoro-anilino)propanamide], the IC50 turned out to be 58.4 nM.

For the molecule `CC(C(N)=O)N(c1ccc(C(F)(F)F)cc1)c1nc(N)c(C(=O)c2ccccc2)s1` (racemic) [Example 28, rac-2-[N-(4-amino-5-benzoyl-thiazol-2-yl)-4-(trifluoromethyl)anilino]propanamide], the IC50 came to 61 nM. For `Cc1cc(C(=O)c2sc(N(c3ccc(F)cc3)C(C)C(N)=O)nc2N)ccn1` (racemic) [Example 187, rac-2-(N-[4-amino-5-(2-methylpyridine-4-carbonyl)thiazol-2-yl]-4-fluoro-anilino)propanamide] the value was 1400 nM; for `CCC(C(N)=O)N(c1ccc(F)cc1)c1nc(N)c(C(=O)c2ccc(OC)cc2)s1` (racemic) [Example 70, rac-2-{[4-amino-5-(4-methoxybenzoyl)-1,3-thiazol-2-yl](4-fluorophenyl)amino}butanamide], 196 nM.

Consider `COc1ccc(C(=O)c2sc(N(c3ccc(F)c(F)c3)C(C)C(N)=O)nc2N)cn1` (single isomer, unassigned) [Example 52.2, 2-(N-[4-amino-5-(6-methoxypyridine-3-carbonyl)thiazol-2-yl]-3,4-difluoro-anilino)propanamide], for which the IC50 was determined as 11400 nM. For the molecule `CC(C(N)=O)N(c1ccc(C(F)(F)F)nc1)c1nc(N)c(C(=O)c2ccccc2)s1` (racemic) [Example 230, rac-2-[(4-amino-5-benzoyl-thiazol-2-yl)-[6-(trifluoromethyl)-3-pyridyl]amino]propanamide], the IC50 is 199 nM. For `CC(Oc1ccc(C(=O)c2sc(N(c3ccccc3)C(C)C(N)=O)nc2N)cc1)C(N)=O` (single isomer, unassigned) [Example 45.2, 2-(N-[4-amino-5-[4-[2-amino-1-methyl-2-oxo-ethoxy]benzoyl]thiazol-2-yl]anilino)propanamide], the IC50 amounted to 8910 nM. As to `CC(C(N)=O)N(c1cnn(C)c1)c1nc(N)c(C(=O)c2ccccc2)s1` (racemic) [Example 78, rac-2-[(4-amino-5-benzoyl-thiazol-2-yl)-(1-methylpyrazol-4-yl)amino]propanamide], the IC50 came to 7220 nM. Turning to `Cc1ccc(C(=O)c2sc(N(c3ccc(F)cc3)C(C)C(N)=O)nc2N)cn1` (racemic) [Example 6, rac-2-(N-[4-amino-5-(6-methylpyridine-3-carbonyl)thiazol-2-yl]-4-fluoro-anilino)propanamide], the IC50 worked out at 740 nM. As to `CC(C(N)=O)N(c1ccc(F)cc1)c1nc(N)c(C(=O)c2ccc(Cl)cc2)s1` (racemic) [Example 38, rac-2-(N-[4-amino-5-(4-chlorobenzoyl)thiazol-2-yl]-4-fluoro-anilino)propanamide], the IC50 worked out at 19.3 nM. For `CC(C(N)=O)N(c1ccc(F)cc1)c1nc(N)c(C(=O)c2ccc(OC(F)(F)F)cc2)s1` (racemic) [Example 40, rac-2-(N-[4-amino-5-[4-(trifluoromethoxy)benzoyl]thiazol-2-yl]-4-fluoro-anilino)propanamide] the value was 15.4 nM; for `CC(C(N)=O)N(c1ccncc1)c1nc(N)c(C(=O)c2ccccc2)s1` (racemic) [Example 189, rac-2-[(4-amino-5-benzoyl-thiazol-2-yl)-(4-pyridyl)amino]propanamide], 6350 nM.
